Assay results: patent US20120083473A1, “TREATMENT OF CONDITIONS BY TOLL-LIKE RECEPTOR MODULATORS” (priority 2010, published 2012)

Columns and labels:
[1] = test system: Bleomycin-induced fibrosis in C57BU6 mice; experiment: Bleomycin-induced lung fibrosis in mice; type: in vivo; conditions: 500 nmol/animal s.c. daily; day 7 and day 21; ELISA
Description: The efficacy of Compound 2 on mouse models of idiopathic lung fibrosis was studied as follows. Lung fibrosis was induced in 6-8 week old female C57BU6 mice. 0.8 U/kg of bleomycin (Hospira, Inc., Lake Forest, Ill.) was administered by intratracheal (i.t.) instillation on day 0. Bleomycin treated C57BU6 mice were divided into four groups (n 7 per group). Groups 2 and 4 were subcutaneously treated with Compound 2 at daily dose of 500 nmol/animal. Groups 1 and 3 were treated with saline control. Groups 1 and 2 were sacrificed on day 7 and groups 3 and 4 were sacrificed on day 21.
Measurements: Lung inflammation and fibrosis were evaluated by the following parameters: 1) cell infiltration to bronchial alveolar lavage (BAL); BAL were collected at the time of sacrifice and cell number was counted by hematocytometer. The infiltrated cells were differentiated by Wright-Giemsa staining. 2) BAL cytokines (IL-6, and IL-1b) by ELISA). 3) Lung histology by H&E staining and Sirius red staining (fibrosis). Histological samples were evaluated blindly.

[2] = Stability of the API; type: physicochemical; conditions: for stability of powder: preliminary
Description: Compound 2 powder underwent preliminary stability testing at 25° C. for 6 months and 40° C. for three months. […] Aqueous solutions of Compound 2 (2 mg/ml) are stable up to 4 weeks at 37° C.

[3] = PK analysis after i.v. administration in mice; type: in vivo
[4] = test system: Peritoneal macrophages (PEC); experiment: Tolerance and M1/M2 gene expression in murine peritoneal macrophages (Real-Time PCR); type: cell-based, mice
Description: Peritoneal macrophages (PEC) isolated from C57 black mice are used to test the tolerogenic effects of compound 2 of Table 2. The effects of this TLR7 ligand are analyzed in terms of gene expression (Real-Time PCR) of both pro-inflammatory (e.g. TNF-alpha, IL-1, IL-6) and anti-inflammatory (e.g. IL-10, TGF-beta) cytokines. Further, additional markers of M1 (e.g. iNOS, IL-12, IFN-beta, CXCL9, CXCL10) versus M2 (e.g. arginase I, Ym1, Fizz1, CCL17, CCL22, dectin 1, MGL) macrophage polarization is determined, in order to evaluate the polarizing activities of this compound. This analysis is instrumental to the understanding of mechanisms driving the tolerogenic action of compound 2 of Table 2, as an M2 polarized response is considered to be an alternative anti-inflammatory and “tolerogenic” macrophage program.
With respect to macrophage tolerance, cells are treated with two doses of compound 2 of Table 2 (1 microM and 10 microM) up to 20 hours and then re-challenged with agonists/ligands of different TLRs (TLR2, TLR4, TLR5, TLR9, TLR7, etc.), including the TLR7 unconjugated ligand 1V209 (free pharmacophore) at a concentration of 10 microM.
In a first run of experiments, the tolerogenic and polarizing ability of compound 2 of Table 2, which also is referred to hereafter as “TMX,” was evaluated. To induce tolerance, PEC were pre-treated for 20 hours with 10 μM or 1 μM TMX. Next, total RNA from control (M/M), TMX activated (M/T), 1V209 (free pharmacophore)-activated (M/I), tolerant (T/M) and tolerant PEC re-challenged with TMX (T/T) or with 1V209 (free pharmacophore) (T/I), were analyzed by RT PCR for the expression of representative M1 and M2 genes. […] However, most of the M1 genes transcripts were still induced (FIG. 1C, D).
Cell Culture and treatments. Peritoneal exudate cells (PEC) were harvested from mice injected with 1 ml of 3% (w/v) thioglycollate medium (Difco, Detroit, Mich.) 4 days prior to isolation. PECs were incubated in RPMI 1640 medium, containing 10% fetal bovine serum, 2 mM glutamine and 100 U/ml of penicillin-streptomycin. The concentration for the different treatments were as follows: LPS (100 ng/ml) (Lipopolysaccharide from Salmonella Abortus Equi S-form, Alexis), CpG (1 μg/ml), Pam3CSK (2 μg/ml), Poly I:C (10 μg/ml), Loxorubine (100 μM), flagellin (100 ng/ml) IL-1β (20 ng/ml), TNF (20 ng/ml), IL-10 (20 ng/ml) (Peprotech), IFNγ (200 U/ml) (Peprotech). To induce TMX tolerance, cells were incubated in the presence of TMX (10 μM or 1 μM) for 20 hrs, washed and maintained in RPMI medium for 2 hrs and then re-challenged with TMX (10 μM) for 4 hrs. To induce TMX-tolerization (T/M) cells were treated with TMX for 20 hrs, washed and then maintained in medium for additional 6 hours, without TMX re-challenge. To induce M1-activation, cells were incubated in medium for 20 hrs, washed, left in medium for 2 hrs and finally stimulated with TMX (10 μM) for 4 hrs. Control cells (M/M) were cultured in medium for the entire period of the experiment. For gene expression analysis, total RNA was extracted from TMX treated and untreated cells with trizol (Invitrogen), according to the manufacturer's instructions. To analyze cytokines and chemokines production supernatants were collected 24 hrs after the second challenge with TMX.
Real-Time PCR. Total RNA was purified as previously described. Briefly, reverse transcription from 1 μg of RNA was performed using cDNA Archive kit (Applied Biosystem, NJ, USA). Real time PCR was performed using Power Syber Green PCR Master Mix (Applied Biosystem, NJ, USA) and detected by 7900HT Fast Real-Time System (Applied Biosystem, NJ, USA). Data were processed using the SDS2.2.2 software (Applied Biosystem, NJ, USA). Results were normalized to the expression of the housekeeping gene β-actin and then expressed as folds of upregulation, with respect to the control cell population.

[5] = PEC pre-treated 20 hours with 10 μM TMX, RT PCR

COCCOc1nc(N)c2nc(O)n(Cc3ccc(C(=O)NCCOCCOCCOCCOCCOCCOCCn4cc(CCC(=O)O)nn4)cc3)c2n1 [Compound 2]
levels of IL-6 and IL-1b cytokines in BAL [1]: under the detection levels of ELISA | stability of powder ([2]; 25° C. for 6 months): no degradation or impurity profile changes | stability of powder ([2]; 40° C. for three months): no degradation or impurity profile changes | time aqueous solutions are stable ([2]; aqueous solutions 2 mg/ml, 37° C.): up to 4 weeks | AUC in comparison with Compound 3 [3]: lower | Cmax in comparison with Compound 3 [3]: lower | clearance in comparison with Compound 3 [3]: higher | half life in comparison with Compound 3 [3]: longer | M2 gene expression ([4]; 1 μM TMX pre-treatment, except for IL-10): did not enhance | M1 (TNF-alpha, IL-12, IFN-beta, CXCL10) gene expression in state of tolerance [4, 5]: low | selected M2 genes (IL-10, TGFβ, Arg I, CCL17, CCL22) in state of tolerance [4, 5]: high levels | M2 markers Ym1, Fizz1, MGL2 gene transcripts ([4]; PEC, TMX): No significant modulation | induction of tolerance ([4]; pre-treatment with 1 μM TMX, except for IL-12p40): unable to induce tolerance | macrophage activation ([4]; prolonged exposure of PEC to high concentration of TMX): M2 skewed activation
